From patent publication US8597646B2, “Methods and compositons featuring TGF-beta antagonists for the treatment of marfan syndrome and associated disorders” (The Johns Hopkins University, priority 2005, dated 2013)
“Also recorded” adds a separate entry of the source.

Legend:
C1039G/+ mice = assay: Aortic root growth by echocardiography in C1039G/+ mice, 4 months of treatment; type: in vivo, mouse
Method: Markers of TGFβ antagonism have included reduced plasma levels of free TGFβ, reduced intracellular initiation of the TGFβ signaling cascade, and reduced tissue expression of TGFβ-responsive genes. […] Three independent measurements of the aortic root were made from the long axis echo view in systole at each of 3 time points (baseline, 2 and 4 months of treatment; FIG. 8A). All analyses were performed blinded to genotype and treatment arm. […] This represents the first therapeutic strategy for MFS that derives from interrogation of disease pathogenesis and the first possibility for primary prevention of disease manifestations.

Fbn1C1039G/+ mice = assay: Prenatal treatment with losartan and propranolol, aorta of Fbn1C1039G/+ mice; type: in vivo, mouse; details: prenatal start
Source text: Treatment of the mothers continued throughout lactation and was maintained in the pups after weaning. Mice were killed at 10 months of age. […] The average aortic wall thickness for untreated wild-type animals was smaller than that in placebo-treated Fbn1C1039G/+ mice (P<0.0001) but was indistinguishable from that in losartan-treated Fbn1C1039G/+ mice (P=0.24, FIG. 20E).

[1] = 10 months of treatment, monopotassium salt

CCCCc1nc(Cl)c(CO)n1Cc1ccc(-c2ccccc2-c2nnn[nH]2)cc1.[K] [losartan, 2-butyl-4-chloro-1-[p-(o-1H-tetrazol-5-ylphenyl)benzyl]imidazole-5-methanol monopotassium salt]
Aortic growth during the 4 months of treatment (C1039G/+ mice; C1039G/+ mice from 7 weeks of age, losartan 50 mg/kg or propranolol 40 mg/kg, aortic root, echo, placebo 0.44±0.09): 0.03±0.07 mm
Aortic growth / protection, in words (C1039G/+ mice; C1039G/+ mice, compared with wild-type or with losartan): indistinguishable from that seen in wild-type mice
Aortic dilatation (Fbn1C1039G/+ mice; 10 months): indistinguishable from wild-type littermates
Aortic wall architecture score (Fbn1C1039G/+ mice; [1]): normalized; also recorded: improvement
Average aortic wall thickness (Fbn1C1039G/+ mice; [1]): indistinguishable; also recorded: full normalization of wall thickness
